Reference: ChEMBL document CHEMBL4118157, “Efficiency of newly prepared thiazole derivatives against some cutaneous fungi” (2018)
In brackets after ≈: the same amount, converted by molar mass.

Experiments:
[1] = test system: Candida albicans; experiment: Antifungal activity against Candida albicans after 48 hrs by broth microdilution method; format: functional
[2] = test system: Nannizzia gypsea; experiment: Antifungal activity against Microsporum gypseum after 72 hrs by broth microdilution method; format: functional
[3] = test system: Trichophyton mentagrophytes; experiment: Antifungal activity against Trichophyton mentagrophytes after 72 hrs by broth microdilution method; format: functional
[4] = test system: Candida albicans; experiment: Fungicidal activity against Candida albicans measured after 72 hrs; format: functional
[5] = test system: Nannizzia gypsea; experiment: Fungicidal activity against Microsporum gypseum measured after 96 hrs; format: functional
[6] = test system: Trichophyton mentagrophytes; experiment: Fungicidal activity against Trichophyton mentagrophytes measured after 96 hrs; format: functional
[7] = test system: Candida albicans; experiment: Inhibition of Candida albicans keratinase activity at 2 ppm incubated for 5 days under non-shaking condition and subsequent incubation for 5 days under shaking condition by UV-vis spectrophotometric analysis relative to control
[8] = test system: Nannizzia gypsea; experiment: Inhibition of Microsporum gypseum keratinase activity at 4 ppm incubated for 5 days under non-shaking condition and subsequent incubation for 5 days under shaking condition by UV-vis spectrophotometric analysis relative to control
[9] = test system: Trichophyton mentagrophytes; experiment: Inhibition of Trichophyton mentagrophytes keratinase activity at 4 ppm incubated for 5 days under non-shaking condition and subsequent incubation for 5 days under shaking condition by UV-vis spectrophotometric analysis relative to control
[10] = test system: Candida albicans; experiment: Antifungal activity against Candida albicans infected in guinea pig skin assessed as recovery from infection at 10 mg/g administered once daily via superficial route for 15 days measured after 30 days post last dose relative to control; format: functional
[11] = test system: Nannizzia gypsea; experiment: Antifungal activity against Microsporum gypseum infected in guinea pig skin assessed as recovery from infection at 10 mg/g administered once daily via superficial route for 15 days measured after 30 days post last dose relative to control; format: functional
[12] = test system: Trichophyton mentagrophytes; experiment: Antifungal activity against Trichophyton mentagrophytes infected in guinea pig skin assessed as recovery from infection at 10 mg/g administered once daily via superficial route for 15 days measured after 30 days post last dose relative to control; format: functional
[13] = test system: Candida albicans; experiment: Inhibition of Candida albicans keratinase activity at MIC incubated for 5 days under non-shaking condition and subsequent incubation for 5 days under shaking condition by UV-vis spectrophotometric analysis relative to control
[14] = test system: Nannizzia gypsea; experiment: Inhibition of Microsporum gypseum keratinase activity at MIC incubated for 5 days under non-shaking condition and subsequent incubation for 5 days under shaking condition by UV-vis spectrophotometric analysis relative to control
[15] = test system: Trichophyton mentagrophytes; experiment: Inhibition of Trichophyton mentagrophytes keratinase activity at MIC incubated for 5 days under non-shaking condition and subsequent incubation for 5 days under shaking condition by UV-vis spectrophotometric analysis relative to control
[16] = test system: Candida albicans; experiment: Inhibition of ergosterol biosynthesis in Candida albicans at MIC by spectrophotometric method relative to control; format: functional
[17] = test system: Nannizzia gypsea; experiment: Inhibition of ergosterol biosynthesis in Microsporum gypseum at MIC by spectrophotometric method relative to control; format: functional
[18] = test system: Trichophyton mentagrophytes; experiment: Inhibition of ergosterol biosynthesis in Trichophyton mentagrophytes at MIC by spectrophotometric method relative to control; format: functional
[19] = test system: Fungi; experiment: Inhibition of fungal keratinase activity at 10 mg/ml relative to control
[20] = test system: Candida albicans; experiment: Inhibition of Candida albicans keratinase activity at 8 ppm incubated for 5 days under non-shaking condition and subsequent incubation for 5 days under shaking condition by UV-vis spectrophotometric analysis relative to control
[21] = test system: Nannizzia gypsea; experiment: Inhibition of Microsporum gypseum keratinase activity at 8 ppm incubated for 5 days under non-shaking condition and subsequent incubation for 5 days under shaking condition by UV-vis spectrophotometric analysis relative to control
[22] = test system: Trichophyton mentagrophytes; experiment: Inhibition of Trichophyton mentagrophytes keratinase activity at 16 ppm incubated for 5 days under non-shaking condition and subsequent incubation for 5 days under shaking condition by UV-vis spectrophotometric analysis relative to control
[23] = test system: Trichophyton terrestre; experiment: Inhibition of Trichophyton terrestre keratinase activity at 10 ug/ml incubated for 5 days under non-shaking condition and subsequent incubation for 5 days under shaking condition by UV-vis spectrophotometric analysis relative to control
[24] = test system: Nannizzia gypsea; experiment: Inhibition of Microsporum gypseum keratinase activity at 10 ug/ml incubated for 5 days under non-shaking condition and subsequent incubation for 5 days under shaking condition by UV-vis spectrophotometric analysis relative to control
[25] = test system: Trichophyton rubrum; experiment: Inhibition of Trichophyton rubrum keratinase activity at 10 ug/ml incubated for 5 days under non-shaking condition and subsequent incubation for 5 days under shaking condition by UV-vis spectrophotometric analysis relative to control
[26] = test system: Epidermophyton floccosum; experiment: Inhibition of Epidermophyton floccosum keratinase activity at 10 ug/ml incubated for 5 days under non-shaking condition and subsequent incubation for 5 days under shaking condition by UV-vis spectrophotometric analysis relative to control
[27] = test system: Fungi; experiment: Inhibition of fungal keratinase activity at 0.1 to 10 mg/ml relative to control
[28] = test system: Candida albicans; experiment: Antifungal activity against Candida albicans; format: functional
[29] = test system: Trichophyton mentagrophytes; experiment: Antifungal activity against Trichophyton mentagrophytes; format: functional

SMILES | MIC [1] | MIC [2] | MIC [3] | MFC [4] | MFC [5] | MFC [6] | further results
COc1ccc(/N=N/c2sc(NN=C3CCN(C)CC3)nc2-c2ccccc2)cc1 | 2 µg/mL (≈ 4.76 µM) | 4 µg/mL (≈ 9.51 µM) | 4 µg/mL (≈ 9.51 µM) | 4 µg/mL (≈ 9.51 µM) | 8 µg/mL (≈ 19 µM) | 32 µg/mL (≈ 76.1 µM) | inhibition [7]: 88.8 to 95%; inhibition [8]: 88.8 to 95%; inhibition [9]: 88.8 to 95%; Activity [10]: 100%; Activity [11]: 92%; Activity [12]: 85%
Cc1nc(NN=C2CCN(C)CC2)sc1/N=N/c1ccc([N+](=O)[O-])cc1 | 64 µg/mL (≈ 171 µM) | 128 µg/mL (≈ 343 µM) | 128 µg/mL (≈ 343 µM) | 256 µg/mL (≈ 686 µM) | > 256 µg/mL | > 256 µg/mL | inhibition [13]: 10.1 to 31.4%; inhibition [14]: 10.1 to 31.4%; inhibition [15]: 10.1 to 31.4%; inhibition (INH) [16]: 28.5%; inhibition (INH) [17]: 33.1%; inhibition (INH) [18]: 21.4%
Cc1nc(NN=C2CCN(C)CC2)sc1/N=N/c1ccc(Cl)cc1 | 16 µg/mL (≈ 44.1 µM) | 16 µg/mL (≈ 44.1 µM) | 16 µg/mL (≈ 44.1 µM) | 32 µg/mL (≈ 88.2 µM) | 128 µg/mL (≈ 353 µM) | 128 µg/mL (≈ 353 µM) | –
CN1CCC(=NNC2=NC(=O)/C(=N\Nc3ccc(Cl)cc3)S2)CC1 | 64 µg/mL (≈ 175 µM) | 128 µg/mL (≈ 351 µM) | 128 µg/mL (≈ 351 µM) | 128 µg/mL (≈ 351 µM) | 256 µg/mL (≈ 702 µM) | > 256 µg/mL | –
Cc1nc(NN=C2CCN(C)CC2)sc1/N=N/c1ccc(Cl)cc1Cl | 16 µg/mL (≈ 40.3 µM) | 64 µg/mL (≈ 161 µM) | 64 µg/mL (≈ 161 µM) | 128 µg/mL (≈ 322 µM) | 128 µg/mL (≈ 322 µM) | > 256 µg/mL | –
Cc1ccccc1/N=N/c1sc(NN=C2CCN(C)CC2)nc1C | 8 µg/mL (≈ 23.4 µM) | 32 µg/mL (≈ 93.4 µM) | 32 µg/mL (≈ 93.4 µM) | 32 µg/mL (≈ 93.4 µM) | 64 µg/mL (≈ 187 µM) | 128 µg/mL (≈ 374 µM) | –
Cc1nc(NN=C2CCN(C)CC2)sc1/N=N/c1ccccc1Cl | 32 µg/mL (≈ 88.2 µM) | 64 µg/mL (≈ 176 µM) | 64 µg/mL (≈ 176 µM) | 128 µg/mL (≈ 353 µM) | 256 µg/mL (≈ 705 µM) | > 256 µg/mL | –
CN1CCC(=NNC2=NC(=O)/C(=N\Nc3ccccc3)S2)CC1 | 2 µg/mL (≈ 6.05 µM) | 4 µg/mL (≈ 12.1 µM) | 4 µg/mL (≈ 12.1 µM) | 4 µg/mL (≈ 12.1 µM) | 8 µg/mL (≈ 24.2 µM) | 16 µg/mL (≈ 48.4 µM) | inhibition [7]: 96%; inhibition [8]: 94%; inhibition [9]: 91.4%; inhibition (INH) [16]: 73.3%; inhibition (INH) [17]: 86.4%; inhibition (INH) [18]: 74.3%; Activity [10]: 100%; Activity [11]: 91%; Activity [12]: 87%
CN1CCC(=NNC2=NC(=O)/C(=N\Nc3ccc([N+](=O)[O-])cc3)S2)CC1 | 64 µg/mL (≈ 170 µM) | 128 µg/mL (≈ 341 µM) | 128 µg/mL (≈ 341 µM) | 256 µg/mL (≈ 682 µM) | > 256 µg/mL | > 256 µg/mL | –
c1ccc(-c2ccc(C(c3ccccc3)n3ccnc3)cc2)cc1 (stereo not drawn) | – | – | – | – | – | – | inhibition [19]: 50%
Cc1ccc(/N=N/c2sc(NN=C3CCN(C)CC3)nc2-c2ccccc2)cc1 | 2 µg/mL (≈ 4.94 µM) | 4 µg/mL (≈ 9.89 µM) | 4 µg/mL (≈ 9.89 µM) | 4 µg/mL (≈ 9.89 µM) | 8 µg/mL (≈ 19.8 µM) | 16 µg/mL (≈ 39.6 µM) | –
CN1CCC(=NNC2=NC(=O)/C(=N\Nc3cccc(Cl)c3)S2)CC1 | 32 µg/mL (≈ 87.7 µM) | 64 µg/mL (≈ 175 µM) | 128 µg/mL (≈ 351 µM) | 128 µg/mL (≈ 351 µM) | 256 µg/mL (≈ 702 µM) | > 256 µg/mL | –
CN1CCC(=NNc2nc(-c3ccccc3)c(/N=N/c3ccc(Cl)cc3)s2)CC1 | 4 µg/mL (≈ 9.41 µM) | 4 µg/mL (≈ 9.41 µM) | 8 µg/mL (≈ 18.8 µM) | 8 µg/mL (≈ 18.8 µM) | 16 µg/mL (≈ 37.7 µM) | 32 µg/mL (≈ 75.3 µM) | –
CN1CCC(=NNc2nc(-c3ccccc3)c(/N=N/c3ccc([N+](=O)[O-])cc3)s2)CC1 | 8 µg/mL (≈ 18.4 µM) | 8 µg/mL (≈ 18.4 µM) | 16 µg/mL (≈ 36.7 µM) | 16 µg/mL (≈ 36.7 µM) | 32 µg/mL (≈ 73.5 µM) | 32 µg/mL (≈ 73.5 µM) | inhibition [20]: 66.1 to 92.2%; inhibition [21]: 66.1 to 92.2%; inhibition [22]: 66.1 to 92.2%
CN1CCC(=NNc2nc(-c3ccccc3)c(/N=N/c3ccccc3)s2)CC1 | 2 µg/mL (≈ 5.12 µM) | 4 µg/mL (≈ 10.2 µM) | 4 µg/mL (≈ 10.2 µM) | 4 µg/mL (≈ 10.2 µM) | 16 µg/mL (≈ 41 µM) | 16 µg/mL (≈ 41 µM) | inhibition [7]: 77 to 94%; inhibition [8]: 77 to 94%; inhibition [9]: 77 to 94%
Cc1nc(NN=C2CCN(C)CC2)sc1/N=N/c1cccc(Cl)c1 | 32 µg/mL (≈ 88.2 µM) | 64 µg/mL (≈ 176 µM) | 128 µg/mL (≈ 353 µM) | 128 µg/mL (≈ 353 µM) | 256 µg/mL (≈ 705 µM) | > 256 µg/mL | –
Cc1ccc(/N=N/c2sc(NN=C3CCN(C)CC3)nc2C)cc1 | 16 µg/mL (≈ 46.7 µM) | 32 µg/mL (≈ 93.4 µM) | 32 µg/mL (≈ 93.4 µM) | 64 µg/mL (≈ 187 µM) | 128 µg/mL (≈ 374 µM) | 256 µg/mL (≈ 748 µM) | –
CN(C/C=C/C#CC(C)(C)C)Cc1cccc2ccccc12 | – | – | – | – | – | – | inhibition [23]: 66%; inhibition [24]: 71.9%; inhibition [25]: 51.7%; inhibition [26]: 72.3%
N#C/C(=C1/SCC(c2ccccc2Cl)S1)n1ccnc1 (stereo not drawn) | – | – | – | – | – | – | inhibition [27]: 40 to 70%
OC(Cn1cncn1)(Cn1cncn1)c1ccc(F)cc1F [FLUCONAZOLE] | 8 µg/mL (≈ 26.1 µM) | 8 µg/mL (≈ 26.1 µM) | 16 µg/mL (≈ 52.2 µM) | 32 µg/mL (≈ 104 µM) | 64 µg/mL (≈ 209 µM) | 64 µg/mL (≈ 209 µM) | inhibition [13]: 61.3 to 72.9%; inhibition [14]: 61.3 to 72.9%; inhibition [15]: 61.3 to 72.9%; Activity [10]: 97%; Activity [11]: 84%; Activity [12]: 77%; MIC [28]: 0.34 µg/mL (≈ 1.11 µM); MIC [29]: 23.9 µg/mL (≈ 78 µM)
COc1ccc(/N=N/c2sc(NN=C3CCN(C)CC3)nc2C)cc1 | 64 µg/mL (≈ 179 µM) | 128 µg/mL (≈ 357 µM) | 128 µg/mL (≈ 357 µM) | 128 µg/mL (≈ 357 µM) | 256 µg/mL (≈ 714 µM) | > 256 µg/mL | –
Cc1nc(NN=C2CCN(C)CC2)sc1/N=N/c1ccccc1 | 16 µg/mL (≈ 48.7 µM) | 64 µg/mL (≈ 195 µM) | 64 µg/mL (≈ 195 µM) | 128 µg/mL (≈ 390 µM) | 128 µg/mL (≈ 390 µM) | 245 µg/mL (≈ 746 µM) | inhibition [13]: 33.4 to 46.3%; inhibition [14]: 33.4 to 46.3%; inhibition [15]: 33.4 to 46.3%
